# Results published in the NIST ThermoML archive (doi:10.1016/j.fluid.2015.03.036).
# Numbers after ± are expanded uncertainties.
# Experiments:
# [1] = Molar enthalpy of transition or fusion; conditions: Crystal; DSC
# [2] = Solid-liquid equilibrium temperature; conditions: 100 kPa; Crystal; DTA
compound,measurement,setting,value
O=P(Nc1ccccc1)(Oc1ccccc1)Oc1ccccc1 [diphenyl anilinophosphonate],Molar enthalpy of transition or fusion,[1],0.0716 ± 0.17 kJ/mol
same,Solid-liquid equilibrium temperature,[2],406.91 ± 0.32 K
